{
  "source": "paper PMC6934184",
  "about": "“Selective DNA-PKcs inhibition extends the therapeutic index of localized radiotherapy and chemotherapy” (The Journal of Clinical Investigation, 2019)",
  "target": "T1, AURKA (Aurora A) (Homo sapiens, UniProt O14965)",
  "T1 construct": "purchased Thermo Fisher Scientific (Life Technologies) SelectScreen",
  "T1 sequence (O14965 whole entry)": "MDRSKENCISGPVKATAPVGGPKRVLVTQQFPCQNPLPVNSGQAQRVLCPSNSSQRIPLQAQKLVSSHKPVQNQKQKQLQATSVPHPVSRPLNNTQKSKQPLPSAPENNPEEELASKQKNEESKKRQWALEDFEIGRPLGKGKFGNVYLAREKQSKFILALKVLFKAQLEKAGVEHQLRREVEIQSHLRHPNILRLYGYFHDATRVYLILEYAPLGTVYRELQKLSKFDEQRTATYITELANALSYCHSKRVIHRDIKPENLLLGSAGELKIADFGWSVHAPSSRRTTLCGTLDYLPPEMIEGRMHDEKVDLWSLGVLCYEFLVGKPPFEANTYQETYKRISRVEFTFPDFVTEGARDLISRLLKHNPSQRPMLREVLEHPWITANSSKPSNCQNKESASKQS",
  "assay": "SelectScreen Z'LYTE",
  "type": "biochemical",
  "in_short": "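NU5455 was profiled across the SelectScreen Broad panel of kinase activity and binding assays. Z'LYTE reactions such as CSF1R ran at apparent Km ATP, while the Adapta CAMK1 assay used ATP listed as 10. Values are given as percent.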",
  "data": [
    {"smiles": "CN(C(=O)CN1CCOCC1)c1ccc2sc3c(-c4cccc5c(=O)cc(N6CC7CCC(C6)O7)oc45)cccc3c2c1", "note": "[NU5455]", "values": [
      {"measurement": "inhibition at 1 µM", "result": -0.1, "unit": "%"}
    ]}
  ]
}
